# Patent publication US20240116985A1, “STAPLED PEPTIDES AND METHODS THEREOF” (priority 2020, published 2024)
# Like-named read-outs stand apart in the source and are kept apart here.
# Experiments:
# [1] = target: T1, full-length beta-Catenin (Uniprot ID P35222) (Homo sapiens, UniProt P35222); experiment: Fluorescence polarization IC50 (beta-catenin / 5FAM-TCF4 10-53 competition); type: binding
# T1 construct: 10 nM full-length beta-Catenin (Uniprot ID P35222)
# T1 sequence (P35222 1-781): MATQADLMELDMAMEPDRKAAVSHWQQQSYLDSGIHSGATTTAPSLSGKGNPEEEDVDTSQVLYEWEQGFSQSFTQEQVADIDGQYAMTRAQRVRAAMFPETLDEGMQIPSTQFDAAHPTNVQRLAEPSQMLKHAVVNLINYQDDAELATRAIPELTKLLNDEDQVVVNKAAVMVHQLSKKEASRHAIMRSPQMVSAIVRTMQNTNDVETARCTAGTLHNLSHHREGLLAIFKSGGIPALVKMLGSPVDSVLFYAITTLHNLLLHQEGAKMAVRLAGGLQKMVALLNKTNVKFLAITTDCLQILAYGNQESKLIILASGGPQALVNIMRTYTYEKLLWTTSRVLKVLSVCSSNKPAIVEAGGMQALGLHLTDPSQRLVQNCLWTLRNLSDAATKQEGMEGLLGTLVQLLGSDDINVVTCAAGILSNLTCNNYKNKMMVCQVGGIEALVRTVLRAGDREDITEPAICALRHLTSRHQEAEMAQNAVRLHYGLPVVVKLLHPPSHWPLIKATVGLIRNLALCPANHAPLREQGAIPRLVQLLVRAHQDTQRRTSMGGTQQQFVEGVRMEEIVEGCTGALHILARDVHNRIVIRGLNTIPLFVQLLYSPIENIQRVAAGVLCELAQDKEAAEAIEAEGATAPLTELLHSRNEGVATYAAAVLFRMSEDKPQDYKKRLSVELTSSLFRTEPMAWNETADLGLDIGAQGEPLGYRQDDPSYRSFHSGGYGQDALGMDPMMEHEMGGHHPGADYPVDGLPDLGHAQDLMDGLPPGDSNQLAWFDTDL
# Solubility in PBS = type: physicochemical
# Summary of the method: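 Read-out is the HPLC peak area of the supernatant from ultracentrifuged PBS solution, scaled against a 50 μM peptide DMSO injection; value reported as [(PBS area)/(DMSO area)]*50 uM.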
# CHI Log D procedure = type: physicochemical; conditions: for CHI Log D: pH 7.4; for chromatographic logD: pH 7.4, CHI Log D
# [2] = fluorescence polarization, read-out: beta-Catenin FP IC50
"IC50 [1, 2]",IC50 ([1]; read-out: FP EC50),Solubility (Solubility in PBS),CHI Log D (CHI Log D procedure),chromatographic logD (CHI Log D procedure),Structure (SMILES)
0.108 µM,–,10 µM,–,2.41,"CC(=O)N1CCC[C@]12CC=CCCCC1(CCCC=CCCCCCC[C@@](C)(C(=O)N[C@@H](Cc3ccccc3)C(=O)N[C@@H](Cc3csc4ccccc34)C(=O)N[C@@H](Cc3c[nH]cn3)C(N)=O)NC(=O)[C@H](CCCNC(N)=O)NC(=O)[C@H](Cc3ccccc3)NC(=O)[C@H](C)NC(=O)[C@H](C)NC(=O)[C@H](CCC(=O)O)NC(=O)[C@H](CC(=O)O)NC1=O)NC(=O)[C@H](CC(C)C)NC(=O)[C@H](CC(=O)O)NC2=O (stereo partly drawn) [I-616, Ac-PL3-Asp-Leu-B5-Asp-Glu-Ala-Ala-Phe-Cit-S8-Phe-BztA-His-NH2]"
0.058 µM,–,50 µM,–,2.34,"CC(=O)N1CCC[C@]12CC=CCCCC1(CCCC=CCCCCCC[C@@](C)(C(=O)N[C@@H](Cc3ccccc3)C(=O)N[C@@H](Cc3csc4ccccc34)C(=O)N[C@@H](CCC(N)=O)C(N)=O)NC(=O)[C@H](CCCNC(N)=O)NC(=O)[C@H](Cc3ccccc3)NC(=O)[C@H](C)NC(=O)[C@H](C)NC(=O)[C@H](CCC(=O)O)NC(=O)[C@H](CC(=O)O)NC1=O)NC(=O)[C@H](CC(C)C)NC(=O)[C@H](CC(=O)O)NC2=O (stereo partly drawn) [I-621, Ac-PL3-Asp-Leu-B5-Asp-Glu-Ala-Ala-Phe-Cit-S8-Phe-BztA-Gln-NH2]"
0.23 µM,0.23 µM,45 µM,2.453,–,"CC(=O)N1CCC[C@]12CC=CCCCC1(CCCC=CCCCCCC[C@@](C)(C(=O)N[C@@H](Cc3ccccc3)C(=O)N[C@@H](Cc3csc4ccccc34)C(=O)N[C@@H](CCC(N)=O)C(N)=O)NC(=O)[C@H]([C@@H](C)O)NC(=O)[C@H](Cc3ccccc3)NC(=O)[C@H](C)NC(=O)[C@H](C)NC(=O)[C@H](CCC(=O)O)NC(=O)[C@H](CC(=O)O)NC1=O)NC(=O)[C@H](CC(C)C)NC(=O)[C@H](CC(=O)O)NC2=O (stereo partly drawn) [I-622, Ac-PL3-Asp-Leu-B5-Asp-Glu-Ala-Ala-Phe-Thr-S8-Phe-BztA-Gln-NH2]"
0.103 µM,0.103 µM,44 µM,2.494,–,"CC(=O)N1CCC[C@]12CC=CCCCC1(CCCC=CCCCCCC[C@@](C)(C(=O)N[C@@H](Cc3ccccc3)C(=O)N[C@@H](Cc3csc4ccccc34)C(=O)N[C@@H](CCC(N)=O)C(N)=O)NC(=O)[C@H]([C@@H](C)O)NC(=O)[C@H](Cc3ccccc3)NC(=O)[C@H](C)NC(=O)[C@H](C)NC(=O)[C@H](CCC(=O)O)NC(=O)[C@H](CC(=O)O)NC1=O)NC(=O)[C@H](CC(C)C)NC(=O)[C@H](CC(=O)O)NC2=O (stereo partly drawn) [I-623, Ac-PL3-Asp-Leu-B5-Asp-Glu-Ala-Ala-Phe-Thr-S8-Phe-BztA-Gln-NH2]"
0.273 µM,0.273 µM,27 µM,2.598,–,"CC(=O)N1CCC[C@]12CC=CCCCC1(CCCC=CCCCCCC[C@@](C)(C(=O)N[C@@H](Cc3ccccc3)C(=O)N[C@@H](Cc3csc4ccccc34)C(N)=O)NC(=O)[C@H](CC(N)=O)NC(=O)[C@H](Cc3ccccc3)NC(=O)[C@H](C)NC(=O)[C@H](C)NC(=O)[C@H](CCC(=O)O)NC(=O)[C@H](CC(=O)O)NC1=O)NC(=O)[C@H](CC(C)C)NC(=O)[C@H](CC(=O)O)NC2=O (stereo partly drawn) [I-624, Ac-PL3-Asp-Leu-B5-Asp-Glu-Ala-Ala-Phe-Asn-S8-Phe-BztA-NH2]"
0.119 µM,0.119 µM,47 µM,2.681,–,"CC(=O)N1CCC[C@]12CC=CCCCC1(CCCC=CCCCCCC[C@@](C)(C(=O)N[C@@H](Cc3ccccc3)C(=O)N[C@@H](Cc3csc4ccccc34)C(N)=O)NC(=O)[C@H](CC(N)=O)NC(=O)[C@H](Cc3ccccc3)NC(=O)[C@H](C)NC(=O)[C@H](C)NC(=O)[C@H](CCC(=O)O)NC(=O)[C@H](CC(=O)O)NC1=O)NC(=O)[C@H](CC(C)C)NC(=O)[C@H](CC(=O)O)NC2=O (stereo partly drawn) [I-625, Ac-PL3-Asp-Leu-B5-Asp-Glu-Ala-Ala-Phe-Asn-S8-Phe-BztA-NH2]"
0.338 µM,0.338 µM,47 µM,3.002,–,"CC(=O)N1CCC[C@]12CC=CCCCC1(CCCC=CCCCCCC[C@@](C)(C(=O)N[C@@H](Cc3ccccc3)C(=O)N[C@@H](Cc3csc4ccccc34)C(N)=O)NC(=O)[C@H](CC(N)=O)NC(=O)[C@H](Cc3ccccc3)NC(=O)[C@H](C)NC(=O)[C@H](C)NC(=O)[C@H](CCC(=O)O)NC(=O)[C@H](CC(=O)O)NC1=O)NC(=O)[C@H](CC1CCCCC1)NC(=O)[C@H](CC(=O)O)NC2=O (stereo partly drawn) [I-627, Ac-PL3-Asp-Cha-B5-Asp-Glu-Ala-Ala-Phe-Asn-S8-Phe-BztA-NH2]"
0.06 µM,0.713 µM,47 µM,3.103,–,"CC(=O)N1CCC[C@]12CC=CCCCC1(CCCC=CCCCCCC[C@@](C)(C(=O)N[C@@H](Cc3ccccc3)C(=O)N[C@@H](Cc3csc4ccccc34)C(N)=O)NC(=O)[C@H](CCCNC(N)=O)NC(=O)[C@H](Cc3ccccc3)NC(=O)[C@H](C)NC(=O)[C@H](C)NC(=O)[C@H](CCC(=O)O)NC(=O)[C@H](CC(=O)O)NC1=O)NC(=O)[C@H](CC(C)C)NC(=O)[C@H](CC(=O)O)NC2=O (stereo partly drawn) [I-628, Ac-PL3-Asp-Leu-B5-Asp-Glu-Ala-Ala-Phe-Cit-S8-Phe-BztA-NH2]"

# More lines, now with the values behind:
Structure (SMILES),"IC50 [1, 2]",IC50 ([1]; read-out: FP EC50),Solubility (Solubility in PBS),CHI Log D (CHI Log D procedure),chromatographic logD (CHI Log D procedure)
"CC[C@H](C)[C@@H]1NC(=O)[C@H](CC(=O)O)NC(=O)[C@]2(CC=CCCCC3(CCCC=CCCCCCC[C@@](C)(C(=O)N[C@@H](Cc4ccccc4)C(=O)N[C@@H](Cc4csc5ccccc45)C(=O)N[C@@H](CCC(N)=O)C(N)=O)NC(=O)[C@H](CCC(N)=O)NC(=O)[C@H](Cc4ccccc4)NC(=O)[C@H](C)NC(=O)[C@H](C)NC(=O)[C@H](CCCNC(=N)N)NC(=O)[C@H](CC(=O)O)NC3=O)NC1=O)CCCN2C(C)=O (stereo partly drawn) [I-614, Ac-PL3-Asp-Ile-B5-Asp-Arg-Ala-Ala-Phe-Gln-S8-Phe-BztA-Gln-NH2]",1.14 µM,1.14 µM,10 µM,2.801,–
"CC(=O)N1CCC[C@]12CC=CCCCC1(CCCC=CCCCCCC[C@@](C)(C(=O)N[C@@H](Cc3ccccc3)C(=O)N[C@@H](Cc3csc4ccccc34)C(=O)N[C@@H](Cc3c[nH]cn3)C(N)=O)NC(=O)[C@H](CC(N)=O)NC(=O)[C@H](Cc3ccccc3)NC(=O)[C@H](C)NC(=O)[C@H](C)NC(=O)[C@H](CCC(=O)O)NC(=O)[C@H](CC(=O)O)NC1=O)NC(=O)[C@H](CC1CCCCC1)NC(=O)[C@H](CC(=O)O)NC2=O (stereo partly drawn) [I-615, Ac-PL3-Asp-Cha-B5-Asp-Glu-Ala-Ala-Phe-Asn-S8-Phe-BztA-His-NH2]",0.05 µM,–,10 µM,–,2.83
"CC(=O)N1CCC[C@]12CC=CCCCC1(CCCC=CCCCCCC[C@@](C)(C(=O)N[C@@H](Cc3ccccc3)C(=O)N[C@@H](Cc3csc4ccccc34)C(=O)N[C@@H](Cc3c[nH]cn3)C(N)=O)NC(=O)[C@H]([C@@H](C)O)NC(=O)[C@H](Cc3ccccc3)NC(=O)[C@H](C)NC(=O)[C@H](C)NC(=O)[C@H](CCC(=O)O)NC(=O)[C@H](CC(=O)O)NC1=O)NC(=O)[C@H](CC(C)C)NC(=O)[C@H](CC(=O)O)NC2=O (stereo partly drawn) [I-617, Ac-PL3-Asp-Leu-B5-Asp-Glu-Ala-Ala-Phe-Thr-S8-Phe-BztA-His-NH2]",0.253 µM,0.253 µM,10 µM,2.549,–
"CC(=O)N1CCC[C@]12CC=CCCCC1(CCCC=CCCCCCC[C@@](C)(C(=O)N[C@@H](Cc3ccccc3)C(=O)N[C@@H](Cc3csc4ccccc34)C(=O)N[C@@H](Cc3c[nH]cn3)C(N)=O)NC(=O)[C@H]([C@@H](C)O)NC(=O)[C@H](Cc3ccccc3)NC(=O)[C@H](C)NC(=O)[C@H](C)NC(=O)[C@H](CCC(=O)O)NC(=O)[C@H](CC(=O)O)NC1=O)NC(=O)[C@H](CC(C)C)NC(=O)[C@H](CC(=O)O)NC2=O (stereo partly drawn) [I-618, Ac-PL3-Asp-Leu-B5-Asp-Glu-Ala-Ala-Phe-Thr-S8-Phe-BztA-His-NH2]",0.135 µM,0.135 µM,10 µM,2.617,–
"CC(=O)N1CCC[C@]12CC=CCCCC1(CCCC=CCCCCCC[C@@](C)(C(=O)N[C@@H](Cc3ccccc3)C(=O)N[C@@H](Cc3csc4ccccc34)C(=O)N[C@@H](CCC(N)=O)C(N)=O)NC(=O)[C@H](CC(N)=O)NC(=O)[C@H](Cc3ccccc3)NC(=O)[C@H](C)NC(=O)[C@H](C)NC(=O)[C@H](CCC(=O)O)NC(=O)[C@H](CC(=O)O)NC1=O)NC(=O)[C@H](CC1CCCCC1)NC(=O)[C@H](CC(=O)O)NC2=O (stereo partly drawn) [I-619, Ac-PL3-Asp-Cha-B5-Asp-Glu-Ala-Ala-Phe-Asn-S8-Phe-BztA-Gln-NH2]",0.044 µM,0.044 µM,47 µM,2.677,–
